Reference: DBAASP
In brackets after ≈: the same amount, converted by molar mass.

What was measured:
Assay in all cases: ≥ marks a high value that may be exact or a test limit, other limits are often not marked, values filed in µg/mL are converted to µM
[1] = system: Bacillus subtilis ATCC 9372
[2] = system: Escherichia coli ATCC 25922
[3] = system: Pseudomonas aeruginosa ATCC 27853
[4] = system: Salmonella typhimurium ATCC 50013
[5] = system: Shigella dysenteriae ATCC 51302
[6] = system: Staphylococcus aureus ATCC 25923
[7] = system: Streptococcus pneumoniae ATCC 49619
Bacillus subtilis 168 = system: Bacillus subtilis 168
[8] = system: Candida albicans F7-39/IDE99
Escherichia coli B = system: Escherichia coli B
Pseudomonas aeruginosa = system: Pseudomonas aeruginosa
Staphylococcus aureus = system: Staphylococcus aureus
[9] = system: Acinetobacter baumannii ATCC 19606
[10] = system: Bacillus magaterium AB90008
[11] = system: Enterobacter cloacae AB2010162
[12] = system: Escherichia coli DH5alpha
[13] = system: Klebsiella pneumoniae ATCC 27736
[14] = system: Micrococcus luteus AB2010179
[15] = system: Pseudomonas aeruginosa ATCC BAA-427
Pseudomonas fluorescens = system: Pseudomonas fluorescens
Pseudomonas putida = system: Pseudomonas putida
[16] = system: Salmonella enterica AB2010185
[17] = system: Staphylococcus aureus AB94004
[18] = system: Staphylococcus aureus ATCC 33591
[19] = system: Acinetobacter baumannii 97830
[20] = system: Acinetobacter baumannii 9931
[21] = system: Bacillus subtilis ATCC 23857
Escherichia coli 780 = system: Escherichia coli 780
Escherichia coli 804 = system: Escherichia coli 804
[22] = system: Klebsiella pneumoniae ATCC 700603
[23] = system: Pseudomonas aeruginosa 50
[24] = system: Pseudomonas aeruginosa 73
[25] = system: Pseudomonas aeruginosa ATCC 9027
[26] = system: Staphylococcus aureus 113
Staphylococcus aureus 75 = system: Staphylococcus aureus 75
[27] = system: Staphylococcus aureus ATCC 29213
[28] = system: Staphylococcus epidermidis ATCC 12228
[29] = system: Bacillus subtilis ATCC 6633
[30] = system: Enterococcus faecalis ATCC 12953
[31] = system: Escherichia coli ATCC 8739
[32] = system: Klebsiella pneumoniae ATCC 13885
[33] = system: Proteus mirabilis ATCC 25933
[34] = system: Pseudomonas aeruginosa ATCC 15442
[35] = system: Salmonella enterica subsp. enterica serovar Typhimurium ATCC 14028
[36] = system: Streptococcus pyogenes ATCC 19615

SMILES | MIC [3] | MIC [9] | MIC [19] | MIC [20] | MIC [21] | MIC (Escherichia coli 780) | MIC (Escherichia coli 804) | MIC [22] | MIC [23] | MIC [24] | MIC [25] | MIC [26] | MIC (Staphylococcus aureus 75) | MIC [27] | MIC [28] | also measured
CC(C)C[C@H](NC(=O)CN)C(=O)N[C@@H](CO)C(=O)N[C@@H](CCCN=C(N)N)C(=O)N[C@@H](CC(C)C)C(=O)N[C@@H](Cc1ccccc1)C(=O)N[C@H](C(=O)N[C@@H](C)C(=O)N[C@@H](CC(C)C)C(=O)N[C@@H](CCCCN)C(=O)O)[C@@H](C)O [GLSRLFTALK] | 57.9 µM (≈ 64 µg/mL) |  |  |  |  |  |  |  |  |  |  |  |  |  |  | MIC [1]: 14.5 µM (≈ 16 µg/mL); MIC [2]: 29 µM (≈ 32 µg/mL); MIC [4]: 29 µM (≈ 32 µg/mL); MIC [5]: ≥ 232 µM; MIC [6]: 14.5 µM (≈ 16 µg/mL); MIC [7]: ≥ 57.9 µM
CC[C@H](C)[C@H](NC(=O)[C@H](Cc1cnc[nH]1)NC(=O)[C@H](CCCCN)NC(=O)[C@H](CC(C)C)NC(=O)[C@H](Cc1ccccc1)NC(=O)[C@H](CO)NC(=O)[C@H](CCSC)NC(=O)[C@H](Cc1c[nH]c2ccccc12)NC(=O)[C@H](CCCCN)NC(=O)CN)C(=O)N[C@@H](CC(C)C)C(=O)N[C@@H](CCCCN)C(N)=O [GKWMSFLKHILK] |  |  |  |  |  |  |  |  |  |  |  |  |  |  |  | MIC (Bacillus subtilis 168): 1.1 µM (≈ 1.64 µg/mL); MIC [8]: 6.8 µM (≈ 10.1 µg/mL); MIC (Escherichia coli B): 4 µM (≈ 5.95 µg/mL); MIC (Pseudomonas aeruginosa): 21.8 µM (≈ 32.4 µg/mL); MIC (Staphylococcus aureus): 6.4 µM (≈ 9.52 µg/mL)
CC[C@H](C)[C@H](N)C(=O)N[C@@H](CC(C)C)C(=O)NCC(=O)N[C@@H](CCC(=O)O)C(=O)N[C@H](C(=O)N[C@@H](Cc1c[nH]c2ccccc12)C(=O)N[C@@H](CCCCN)C(=O)NCC(=O)N[C@H](C(=O)N[C@@H](CCCCN)C(=O)N[C@@H](CC(=O)O)C(=O)N[C@H](C(=O)N[C@@H](CC(C)C)C(N)=O)[C@@H](C)CC)[C@@H](C)CC)[C@@H](C)CC [ILGEIWKGIKDIL] |  | > 26.7 µM |  |  |  |  |  |  |  |  |  |  |  |  |  | MIC [10]: ≥ 41 µM; MIC [11]: ≥ 82 µM; MIC [2]: ≥ 100 µM; MIC [12]: ≥ 82 µM; MIC [13]: ≥ 100 µM; MIC [14]: ≥ 82 µM; MIC [15]: ≥ 100 µM; MIC (Pseudomonas fluorescens): ≥ 82 µM; MIC (Pseudomonas putida): ≥ 82 µM; MIC [16]: ≥ 82 µM; MIC [17]: ≥ 82 µM; MIC [6]: ≥ 100 µM; MIC [18]: ≥ 100 µM
CC[C@H](C)[C@H](N)C(=O)N[C@@H](CCCN=C(N)N)C(=O)N[C@@H](Cc1c[nH]c2ccccc12)C(=O)N[C@@H](Cc1c[nH]c2ccccc12)C(=O)N[C@@H](Cc1c[nH]c2ccccc12)C(=O)N[C@@H](CCCN=C(N)N)C(=O)N[C@H](C(N)=O)[C@@H](C)CC [IRWWWRI] | 16 µM (≈ 17.8 µg/mL) | 64 µM (≈ 71.3 µg/mL) | ≥ 32 µM | ≥ 32 µM | 8 µM (≈ 8.91 µg/mL) | 16 µM (≈ 17.8 µg/mL) | 16 µM (≈ 17.8 µg/mL) | 32 µM (≈ 35.7 µg/mL) | ≥ 32 µM | ≥ 32 µM | 32 µM (≈ 35.7 µg/mL) | 8 µM (≈ 8.91 µg/mL) | 8 µM (≈ 8.91 µg/mL) | 4 µM (≈ 4.46 µg/mL) | 8 µM (≈ 8.91 µg/mL) | 
NC(=O)[C@H](Cc1ccccc1)NC(=O)[C@H](CCCN=C(N)N)NC(=O)[C@H](CCCN=C(N)N)NC(=O)[C@H](Cc1c[nH]c2ccccc12)NC(=O)[C@H](Cc1c[nH]c2ccccc12)NC(=O)[C@H](Cc1c[nH]c2ccccc12)NC(=O)[C@H](CCCN=C(N)N)NC(=O)[C@H](CCCN=C(N)N)NC(=O)[C@@H](N)Cc1ccccc1 [FRRWWWRRF] | 4 µM (≈ 5.98 µg/mL) | 16 µM (≈ 23.9 µg/mL) | 8 µM (≈ 12 µg/mL) | 16 µM (≈ 23.9 µg/mL) | 2 µM (≈ 2.99 µg/mL) | 16 µM (≈ 23.9 µg/mL) | 16 µM (≈ 23.9 µg/mL) | 16 µM (≈ 23.9 µg/mL) | 4 µM (≈ 5.98 µg/mL) | 16 µM (≈ 23.9 µg/mL) | 8 µM (≈ 12 µg/mL) | 8 µM (≈ 12 µg/mL) | 4 µM (≈ 5.98 µg/mL) | 4 µM (≈ 5.98 µg/mL) | 8 µM (≈ 12 µg/mL) | 
C[C@H](N)C(=O)N[C@@H](Cc1c[nH]c2ccccc12)C(=O)N[C@@H](CCCN=C(N)N)C(=O)N[C@@H](Cc1c[nH]c2ccccc12)C(=O)N[C@@H](Cc1c[nH]c2ccccc12)C(=O)N[C@@H](Cc1c[nH]c2ccccc12)C(=O)N[C@@H](CCCN=C(N)N)C(=O)N[C@@H](Cc1c[nH]c2ccccc12)C(=O)N[C@@H](C)C(N)=O [AWRWWWRWA] | 32 µM (≈ 44.9 µg/mL) | 32 µM (≈ 44.9 µg/mL) | 8 µM (≈ 11.2 µg/mL) | ≥ 32 µM | 8 µM (≈ 11.2 µg/mL) | 16 µM (≈ 22.4 µg/mL) | 8 µM (≈ 11.2 µg/mL) | 8 µM (≈ 11.2 µg/mL) | ≥ 32 µM | ≥ 32 µM | 32 µM (≈ 44.9 µg/mL) | 8 µM (≈ 11.2 µg/mL) | 4 µM (≈ 5.61 µg/mL) | 8 µM (≈ 11.2 µg/mL) | 8 µM (≈ 11.2 µg/mL) | 
NCCCC[C@H](NC(=O)[C@@H](N)CCCCN)C(=O)N[C@@H](Cc1ccccc1)C(=O)N[C@@H](Cc1c[nH]c2ccccc12)C(=O)N[C@@H](CCC(=O)O)C(=O)N[C@@H](CC(=O)O)C(=O)N[C@@H](CC(=O)O)C(=O)NCC(N)=O [KKFWEDDG] |  |  |  |  |  |  |  |  |  |  |  |  |  | 250 µM (≈ 256 µg/mL) |  | MIC [29]: ≥ 250 µM; MIC [30]: ≥ 125 µM; MIC [31]: ≥ 250 µM; MIC [32]: ≥ 125 µM; MIC [33]: ≥ 125 µM; MIC [34]: ≥ 250 µM; MIC [35]: 125 µM (≈ 128 µg/mL); MIC [36]: ≥ 125 µM
